The results in this text go back to PubChem BioAssay (NCI).

Each structure is given as a SMILES string.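 Each compound was tested at five concentrations against cells in 96-well plates for 48 hours. Abbreviation: GI50, concentration required for 50% inhibition of growth. The concentration for full growth arrest is given as TGI.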

Some test systems named below: DU-145 prostate; HOP-62 NSCLC; K-562 leukemia; NCI-H460 lung; OVCAR-5 ovarian; SF-268 CNS; SF-295 CNS; SK-MEL-5 melanoma; SR leukemia; UACC-257 melanoma.
Holding throughout (test): NCI anticancer screen, dose series, 48 h

Take `NC1=Nc2cc(OCCCN3Cc4ccccc4C3)c(OCC3CC3)cc2C12CCCC2`: the GI50 is 4.44 µM with DU-145 prostate; 3.45 µM in the test with HOP-62 NSCLC; 0.74 µM in the test on K-562 leukemia; 2.02 µM in the test with NCI-H460 lung; 5.99 µM in the test on OVCAR-5 ovarian; 3.79 µM in the test with SF-268 CNS. Moreover, the GI50 with SF-295 CNS was 1.64 µM; in the test on SK-MEL-5 melanoma, 1.67 µM; in the test on SR leukemia, 1.94 µM; in the test on UACC-257 melanoma it was 2.2 µM. Besides, the TGI in the test with DU-145 prostate came out at 16.2 µM; in the test with HOP-62 NSCLC, 11.5 µM; in the test with K-562 leukemia, 4.08 µM; in the test on NCI-H460 lung, 4.67 µM; in the test on OVCAR-5 ovarian, 19.1 µM; in the test on SF-268 CNS, 16.9 µM. The TGI came to 3.42 µM with SF-295 CNS, 3.04 µM in the test with SK-MEL-5 melanoma, 5.02 µM in the test with SR leukemia and 3.94 µM in the test on UACC-257 melanoma.
With `COc1cc2c(cc1OCCCCOc1ccc(-c3nc4ccccc4s3)cc1)N=C[C@@H]1CCCN1C2=O`, the GI50 with DU-145 prostate is 0.426 µM; in the test with HOP-62 NSCLC, 0.745 µM; with K-562 leukemia, 0.301 µM; with NCI-H460 lung, 1.56 µM; in the test with OVCAR-5 ovarian, 0.861 µM; with SF-268 CNS, 0.998 µM. Further, the GI50 is 1.22 µM in the test with SF-295 CNS, 0.667 µM in the test on SK-MEL-5 melanoma, 0.276 µM in the test with SR leukemia and 2.63 µM in the test with UACC-257 melanoma. In addition, the TGI came out at 2.05 µM in the test with DU-145 prostate; 2.14 µM with HOP-62 NSCLC; 4.91 µM with K-562 leukemia; 4.06 µM with NCI-H460 lung; 3.86 µM with OVCAR-5 ovarian; 3.58 µM with SF-268 CNS. For the same molecule, the TGI was 8.81 µM with SF-295 CNS, 1.85 µM in the test on SK-MEL-5 melanoma, 1.12 µM in the test on SR leukemia and 7.06 µM in the test on UACC-257 melanoma.
In the case of `Cc1ccc(Sc2sc(-c3ccccc3)nc2[P+](c2ccccc2)(c2ccccc2)c2ccccc2)cc1`, the GI50 in the test on DU-145 prostate is 0.379 µM; with HOP-62 NSCLC, 0.296 µM; in the test on K-562 leukemia, 0.257 µM; with NCI-H460 lung it was 0.314 µM; in the test on OVCAR-5 ovarian it was 0.4 µM; with SF-268 CNS it was 0.366 µM. In addition, the GI50 is 0.243 µM in the test with SF-295 CNS, 0.172 µM in the test with SK-MEL-5 melanoma, 0.368 µM in the test on SR leukemia and 0.328 µM with UACC-257 melanoma. For the same molecule, the TGI in the test with DU-145 prostate was 1.37 µM; in the test on HOP-62 NSCLC, 1.18 µM; in the test with K-562 leukemia it was 1.54 µM; in the test with NCI-H460 lung it was 1.09 µM; in the test on OVCAR-5 ovarian, 1.45 µM; in the test on SF-268 CNS it was 1.43 µM. Besides, the TGI with SF-295 CNS stood at 0.722 µM; with SK-MEL-5 melanoma it was 0.313 µM; in the test with SR leukemia, 3.77 µM; in the test on UACC-257 melanoma it was 1.11 µM.
As for `O=C(Nc1ccccc1)Nc1cccc(Oc2nnc(Cl)c3ccccc23)c1`, the GI50 in the test with DU-145 prostate was 3.01 µM; in the test with HOP-62 NSCLC, 2.52 µM; in the test with K-562 leukemia it was 6.21 µM; with NCI-H460 lung, 2.67 µM; with OVCAR-5 ovarian, 5.61 µM; in the test on SF-268 CNS it was 2.89 µM. Also, the GI50 with SF-295 CNS was 2.07 µM; in the test with SK-MEL-5 melanoma it was 4.56 µM; in the test on SR leukemia, 1.93 µM; in the test with UACC-257 melanoma, 3.96 µM. The TGI in the test with DU-145 prostate was 10.5 µM; with HOP-62 NSCLC, 6.54 µM; in the test with K-562 leukemia, over 25 µM; with NCI-H460 lung, 8.65 µM; in the test on OVCAR-5 ovarian it was 15.3 µM; with SF-268 CNS, 7.57 µM. Besides, the TGI is 5.63 µM in the test with SF-295 CNS, 18.6 µM with SK-MEL-5 melanoma, 8.26 µM with SR leukemia and over 25 µM in the test on UACC-257 melanoma.
With `Nc1nc(-c2cccc([N+](=O)[O-])c2)cc(-c2cc(-c3cccc([N+](=O)[O-])c3)nc(N)n2)n1`, the TGI in the test on DU-145 prostate, with HOP-62 NSCLC, with K-562 leukemia, in the test on NCI-H460 lung, in the test with OVCAR-5 ovarian and in the test on SF-268 CNS was over 100 µM each time. For the same molecule, the TGI in the test on SF-295 CNS, with SK-MEL-5 melanoma, in the test with SR leukemia and in the test on UACC-257 melanoma was over 100 µM throughout.
With `O=C1NN(c2ccccc2)C(=O)/C1=C/c1ccc(Br)o1`, the GI50 is 1.45 µM in the test on DU-145 prostate; 14.1 µM with K-562 leukemia; 15.1 µM in the test with NCI-H460 lung; 14.2 µM in the test on OVCAR-5 ovarian; 14 µM in the test with SF-268 CNS; 1.26 µM in the test on SK-MEL-5 melanoma. Moreover, the GI50 in the test with SR leukemia was 2.62 µM; with UACC-257 melanoma it was 15.4 µM. Besides, the TGI in the test on DU-145 prostate is 11.2 µM; in the test with HOP-62 NSCLC, 21.4 µM; in the test on K-562 leukemia it was over 77.7 µM; with NCI-H460 lung it was 36 µM; in the test with OVCAR-5 ovarian, 30.6 µM; in the test with SF-268 CNS, 47.7 µM. Further, the TGI came to 2.56 µM with SF-295 CNS, 2.05 µM with SK-MEL-5 melanoma, 8.3 µM with SR leukemia and 37.3 µM in the test on UACC-257 melanoma.
Take `N#Cc1ccc2c(c1)C(=O)c1c-2n(CCCN)c(=O)c2cc([N+](=O)[O-])ccc12`: the GI50 was 0.11 µM in the test on DU-145 prostate; 0.259 µM in the test on HOP-62 NSCLC; 0.185 µM in the test with K-562 leukemia; 0.0462 µM with NCI-H460 lung; 0.705 µM in the test on OVCAR-5 ovarian; 0.0846 µM in the test on SF-268 CNS. The GI50 with SF-295 CNS was 0.0382 µM; in the test with SK-MEL-5 melanoma, 0.248 µM; with SR leukemia, 0.0184 µM; in the test with UACC-257 melanoma, 0.637 µM. The TGI is 1.41 µM with DU-145 prostate; 1.79 µM with HOP-62 NSCLC; 3.97 µM in the test on K-562 leukemia; 1.14 µM with NCI-H460 lung; 1.86 µM with OVCAR-5 ovarian; 1.51 µM in the test with SF-268 CNS. In addition, the TGI in the test on SF-295 CNS amounted to 1.49 µM; with SK-MEL-5 melanoma it was 1.35 µM; in the test with SR leukemia, 1.26 µM; in the test on UACC-257 melanoma it was 2.43 µM.
As to `CN1CCN(c2ccc(C(=O)Nc3cc(-c4cccc(NS(=O)(=O)c5ccccc5)c4)[nH]n3)cc2)CC1`, the GI50 with DU-145 prostate is 8.52 µM; with HOP-62 NSCLC, 6.61 µM; in the test with K-562 leukemia it was 2.89 µM; in the test on NCI-H460 lung it was 5.46 µM; in the test with OVCAR-5 ovarian, 13.8 µM; with SF-268 CNS, 5.51 µM. For the same molecule, the GI50 in the test with SF-295 CNS was 3.69 µM; in the test with SK-MEL-5 melanoma, 4.17 µM; in the test on SR leukemia, 2 µM; in the test with UACC-257 melanoma, 11.2 µM. In addition, the TGI in the test on DU-145 prostate came to 21.2 µM; in the test with HOP-62 NSCLC, 30.2 µM; with K-562 leukemia, 19.4 µM; in the test with NCI-H460 lung, 23.1 µM; with OVCAR-5 ovarian, 46.6 µM; with SF-268 CNS it was 25.7 µM. Besides, the TGI in the test with SF-295 CNS stood at 20.9 µM; in the test with SK-MEL-5 melanoma, 9.23 µM; in the test on SR leukemia, 5.33 µM; with UACC-257 melanoma, 27 µM.
